The test deals with WM3928 cells. As to the kind of experiment: WM3928 cell proliferation assay (2), resazurin, 384-well. The test is classed as cell-based. The note with it: inhibition of cell proliferation, 67-72 hours. As for the experimental part: WM3928 Cell Proliferation Assay (2)
WM3928 cells (#WM3928-01-0001) are obtained from Rockland Immunochemicals Inc (Gilbertsville, PA). Briefly, cells were grown in MCDB 153 medium (Sigma, #M7403, St. Louis, MO) supplemented with 20% Leibovitz's L-15 (ThermoFisher #11415-064, Waltham, MA), 2% heat inactivated fetal bovine serum (ThermoFisher, #A3840001, Waltham, MA), 5 μg/mL Insulin (Bovine Pancreas) (Sigma, #I0516, St. Louis, MO), 1.68 mM Calcium Chloride (Sigma, #C-34006, St. Louis, MO) and 1% Penicillin/Streptomycin/L-Glutamine (ThermoFisher #10378016, Waltham, MA) at 37° C., 5% CO2, and 95% humidity. Cells are expanded until reaching 70-95% confluency at which point they are sub-cultured or harvested for assay use. Using the Beckman Coulter Echo 650, a serial dilution of test compound is dispensed into a 384-well black clear bottom plate in triplicate. Seven hundred fifty cells are added per well in 50 μL complete growth medium in the 384-well plate. Plates are incubated for 67-72 hours at 37° C., 5% CO2, and 95% humidity. At the end of the incubation, 10 μL of a 440 μM solution of resazurin (Sigma, #199303, St. Louis, MO) in PBS is added to each well of the plate and plates are incubated for an additional 3-6 hours at 37° C., 5% CO2, and 95% humidity. Plates are read on a Synergy2 or equivalent reader (Biotek, Winooski VT) using an excitation of 540 nm and an emission of 600 nm. Data is analyzed using Prism software (GraphPad, San Diego, CA) to calculate IC50 values.

Data on two compounds can be found in patent publication US20230357179A1, “RAF KINASE INHIBITORS AND METHODS OF USE THEREOF” (Deciphera Pharmaceuticals, LLC, priority 2021, published 2023).

A word on the IC50: it is the concentration that inhibits the measured activity by half.

With `Cc1ccc(NC(=O)N2CC[C@H](C(F)(F)F)C2)cc1-c1cncc(-c2cc(NC(=O)C3CC3)ncn2)c1` [Example 195], the IC50 was not above 0.1 µM.
In the case of `Cc1cc(F)c(NC(=O)N2CC[C@H](C(F)(F)F)C2)cc1-c1cncc(-c2cc(NC(=O)C3CC3)ncn2)c1` [Example 216] it was not above 0.1 µM.
